# Test results: patent US5143906A, “Kedarcidin antitumor chromophore and pharmaceutical composition containing same” (Bristol-Myers Squibb Company, priority 1991, dated 1992)
# Experiments:
# [1] = tested on: ip implanted P388 leukemia; experiment: Antitumor activity against ip implanted P388 leukemia; assay type: in vivo, murine (CDF1 mice); parameters: Med. surv. time: unit not given here
# Source text: (§1) The P388 tumor was maintained in ascitic form in DBA/2 mice. Experimental tumor models used CDF^1 mice implanted via the intraperitoneal or intravenous route with 1×10^6 leukemia cells on day 0 and dosed with drugs according to the indicated route and schedule. Mice were weighed on day 0 and on day 5 or 6. Weight loss of 20% or greater was an indicator of drug toxicity. Each dose group consisted of 6 mice with 10 mice in the untreated control group. The dosing schedule was Q1DX1;1. Death checks were performed daily and the median life span of each group determined. […] Experiments were terminated on or about day 30.
# [2] = tested on: iv implanted P388 leukemia; experiment: Antitumor activity against iv implanted P388 leukemia; assay type: in vivo, murine (CDF1 mice); parameters: Med. surv. time: unit not given here
# Source text: as §1
# [3] = tested on: human colon adenocarcinoma HCT116 drug sensitive line; experiment: In vitro cytotoxicity assay (XTT), HCT116; assay type: cell-based; conditions: Homo sapiens, HCT-116; HCT116, 72 h; VP-16 values: mean of triplicate determinations from last 6 experiments; read-out: IC50
# Protocol: (§2) The A2780/DDP cell line is reported to be resistant through enhanced DNA repair mechanisms and elevated GSH/GST levels. Cells were cultured in McCoy's media and 10% fetal bovine serum. When in log phase growth, 4×10^3 cells/well were plated into 96 well microtiter plates and incubated at 37° C. in […] /5% CO2 for 24 hours to allow cell attachment. Compounds were added to the top row of wells, serially diluted (4 fold dilutions) and incubated for an additional 72 hours. The number of viable cells in each well was then quantitated as previously described^2 by adding 0.05 mg/ml final concentration tetrazolium stain (XTT) in the presence of 0.005 mM final concentration phenazine methosulfate. After incubation at room temperature for 3 hours to allow color development, optical density values were measured using a Dynatech MR600 plate reader at […]. IC50 values (drug concentration inhibiting cell growth by 50%) were calculated using linear regression analysis of the optical density readings. Triplicate determinations on separate 96 well plates were done for each drug on each cell line tested.
# [4] = tested on: HCT116/VP35 drug resistant cell line; experiment: In vitro cytotoxicity assay (XTT), HCT116/VP35; assay type: cell-based, human; conditions: Homo sapiens, HCT-116; HCT116/VP35, 72 h; VP-16 values: mean of triplicate determinations from last 6 experiments; read-out: IC50
# Protocol: as §2
# [5] = tested on: HCT116/VM46 drug resistant cell line; experiment: In vitro cytotoxicity assay (XTT), HCT116/VM46; assay type: cell-based, human; conditions: Homo sapiens, HCT-116/VM46; HCT116/VM46, 72 h; VP-16 values: mean of triplicate determinations from last 6 experiments; read-out: IC50
# Protocol: as §2
# [6] = tested on: human ovarian carcinoma A2780 drug sensitive cell line; experiment: In vitro cytotoxicity assay (XTT), A2780; assay type: cell-based; conditions: Homo sapiens; A2780, 72 h; VP-16 values: mean of triplicate determinations from last 6 experiments; read-out: IC50
# Protocol: as §2
# [7] = tested on: A2780/DDP drug resistant cell line; experiment: In vitro cytotoxicity assay (XTT), A2780/DDP; assay type: cell-based, human
# Protocol: as §2
smiles,measurement,setting,value
"CO[C@@]12[C@H](COC(N)=O)C3=C(C(=O)C(C)=C(N)C3=O)N1C[C@@H]1N[C@@H]12 [Mitomycin C, reference compound]",% T/C,"[1]; Exp. 8305, 3.2 mg/kg/dose",200%
same,Av. wgt. change,"[1]; Exp. 8305, 3.2 mg/kg/dose",-0.5 g
same,Med. surv. time,"[1]; Exp. 8305, 3.2 mg/kg/dose",20.0
same,No. of mice alive on d 5,"[1]; Exp. 8305, 3.2 mg/kg/dose",6/6
same,% T/C,"[1]; Exp. 8305, 4.8 mg/kg/dose",230%
same,Av. wgt. change,"[1]; Exp. 8305, 4.8 mg/kg/dose",-0.7 g
same,Med. surv. time,"[1]; Exp. 8305, 4.8 mg/kg/dose",23.0
same,No. of mice alive on d 5,"[1]; Exp. 8305, 4.8 mg/kg/dose",6/6
same,% T/C,"[1]; Exp. 8328, 3.2 mg/kg/dose",190%
same,Av. wgt. change,"[1]; Exp. 8328, 3.2 mg/kg/dose",-0.8 g
same,Med. surv. time,"[1]; Exp. 8328, 3.2 mg/kg/dose",19.0
same,No. of mice alive on d 5,"[1]; Exp. 8328, 3.2 mg/kg/dose",6/6
same,% T/C,"[1]; Exp. 8328, 4.8 mg/kg/dose",200%
same,Av. wgt. change,"[1]; Exp. 8328, 4.8 mg/kg/dose",-0.5 g
same,Med. surv. time,"[1]; Exp. 8328, 4.8 mg/kg/dose",20.0
same,No. of mice alive on d 5,"[1]; Exp. 8328, 4.8 mg/kg/dose",6/6
same,% T/C,"[2]; Exp. 8305, 0.8 mg/kg/dose",114%
same,Av. wgt. change,"[2]; Exp. 8305, 0.8 mg/kg/dose",0.4 g
same,Med. surv. time,"[2]; Exp. 8305, 0.8 mg/kg/dose",8.0
same,No. of mice alive on d 5,"[2]; Exp. 8305, 0.8 mg/kg/dose",6/6
same,% T/C,"[2]; Exp. 8305, 1.6 mg/kg/dose",143%
same,Av. wgt. change,"[2]; Exp. 8305, 1.6 mg/kg/dose",-0.3 g
same,Med. surv. time,"[2]; Exp. 8305, 1.6 mg/kg/dose",10.0
same,No. of mice alive on d 5,"[2]; Exp. 8305, 1.6 mg/kg/dose",6/6
same,% T/C,"[2]; Exp. 8305, 3.2 mg/kg/dose",157%
same,Av. wgt. change,"[2]; Exp. 8305, 3.2 mg/kg/dose",0.5 g
same,Med. surv. time,"[2]; Exp. 8305, 3.2 mg/kg/dose",11.0
same,No. of mice alive on d 5,"[2]; Exp. 8305, 3.2 mg/kg/dose",6/6
same,% T/C,"[2]; Exp. 8305, 4.8 mg/kg/dose",193%
same,Av. wgt. change,"[2]; Exp. 8305, 4.8 mg/kg/dose",-0.8 g
same,Med. surv. time,"[2]; Exp. 8305, 4.8 mg/kg/dose",13.5
same,No. of mice alive on d 5,"[2]; Exp. 8305, 4.8 mg/kg/dose",6/6
same,% T/C,"[2]; Exp. 8328, 1.6 mg/kg/dose",129%
same,Av. wgt. change,"[2]; Exp. 8328, 1.6 mg/kg/dose",-0.1 g
same,Med. surv. time,"[2]; Exp. 8328, 1.6 mg/kg/dose",9.0
same,No. of mice alive on d 5,"[2]; Exp. 8328, 1.6 mg/kg/dose",6/6
same,% T/C,"[2]; Exp. 8328, 3.2 mg/kg/dose",143%
same,Av. wgt. change,"[2]; Exp. 8328, 3.2 mg/kg/dose",-0.7 g
same,Med. surv. time,"[2]; Exp. 8328, 3.2 mg/kg/dose",10.0
same,No. of mice alive on d 5,"[2]; Exp. 8328, 3.2 mg/kg/dose",6/6
"COc1cc([C@@H]2c3cc4c(cc3[C@@H](O[C@@H]3O[C@@H]5CO[C@@H](C)O[C@H]5[C@H](O)[C@H]3O)[C@H]3COC(=O)[C@H]23)OCO4)cc(OC)c1O [VP-16, etoposide, reference compound]",IC50,[3],0.69 µg/mL
same,IC50,[4],8.76 µg/mL
same,IC50,[5],3.25 µg/mL
same,IC50,[6],0.057 µg/mL
same,fold less potent on the resistant cell line compared to the sensitive cell line,"[7]; A2780/DDP vs A2780, 4320 min",about 6.6 fold
same,IC50,"[7]; Homo sapiens, A2780/DDP, 72 h, VP-16 values: mean of triplicate determinations from last 6 experiments, read-out: IC50",0.379 µg/mL
